The structures appear in SMILES notation.

The test deals with P2Y purinoceptor 12 (Homo sapiens, UniProt Q9H244). As to the kind of experiment: Binding affinity to human recombinant P2Y12 receptor expressed in CHO cells. Format: cell-based.
Sequence of P2Y purinoceptor 12 (Q9H244 whole entry): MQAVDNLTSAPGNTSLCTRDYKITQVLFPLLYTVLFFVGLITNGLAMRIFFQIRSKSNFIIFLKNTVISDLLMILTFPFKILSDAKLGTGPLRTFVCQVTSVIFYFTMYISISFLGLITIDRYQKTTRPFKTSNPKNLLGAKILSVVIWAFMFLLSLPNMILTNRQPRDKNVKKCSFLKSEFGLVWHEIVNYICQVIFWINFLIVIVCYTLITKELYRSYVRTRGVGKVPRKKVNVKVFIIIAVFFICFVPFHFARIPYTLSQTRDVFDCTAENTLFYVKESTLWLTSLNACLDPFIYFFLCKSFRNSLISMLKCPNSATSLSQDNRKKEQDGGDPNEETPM
For the compound `CCOC(=O)N1CCN(C(=O)[C@H](CCC(=O)O)NC(=O)c2cc(OCc3ccccc3)cc(-c3ccccc3)n2)CC1`, the Ki was found to be 28 nM.
As for `Cc1cccc(N2CCN(C(=O)[C@H](CCC(=O)O)NC(=O)c3cc(-c4ccccc4)cc(-c4ccccc4)n3)CC2)c1`, the Ki amounted to 5.7 nM.
In the case of `CCCCOC(=O)N1CCN(C(=O)[C@H](CCC(=O)O)NC(=O)c2cc(OC3CCNCC3)cc(-c3ccccc3)n2)CC1`, the Ki was 12 nM.
Take `CCCCCOC(=O)N1CCN(C(=O)[C@H](CCC(=O)O)NC(=O)c2cc(N3CCC(O)CC3)cc(-c3ccccc3)n2)CC1`: the Ki came out at 11 nM.
As to `CCOC(=O)N1CCN(C(=O)[C@H](CCC(=O)O)NC(=O)c2cc(N3CCC(O)CC3)cc(-c3ccccc3)n2)CC1`, the Ki is 42 nM.
On to `CCCCCCCCOC(=O)N1CCN(C(=O)[C@H](CCC(=O)O)NC(=O)c2cccc(-c3ccccc3)n2)CC1`, for which the Ki is 14 nM.
As for `CCCCOC(=O)N1CCN(C(=O)[C@H](CCC(=O)O)NC(=O)c2cccc(-c3ccccc3)n2)CC1`, the Ki worked out at 29 nM.
With `CCOC(=O)N1CCN(C(=O)[C@H](CCC(=O)O)NC(=O)c2cc(NC)cc(-c3ccccc3)n2)CC1`, the Ki turned out to be 35 nM.
For the compound `C=CCOC(=O)N1CCN(C(=O)[C@H](CCC(=O)O)NC(=O)c2cc(OCCOC)cc(-c3ccccc3)n2)CC1`, the Ki is 95 nM.
As to `CCOC(=O)N1CCN(C(=O)[C@H](CCC(=O)O)NC(=O)c2cc(N3CCN(CCN(C)C)CC3)cc(-c3ccccc3)n2)CC1`, the Ki is 47 nM.
In the case of `CCCCOc1cc(C(=O)N[C@@H](CCC(=O)O)C(=O)N2CCN(C(=O)OCC)CC2)nc(-c2ccccc2)c1`, the Ki came to 39 nM.
`CCCCCOC(=O)N1CCN(C(=O)[C@H](CCC(=O)O)NC(=O)c2cc(OCCOC)cc(-c3ccccc3)n2)CC1`: the Ki was found to be 10 nM.
For `CCOC(=O)N1CCN(C(=O)[C@H](CCC(=O)O)NC(=O)c2cc(N(C)CCS(C)(=O)=O)cc(-c3ccccc3)n2)CC1` the value was 48 nM; for `COC(=O)N1CCN(C(=O)[C@H](CCC(=O)O)NC(=O)c2cccc(-c3ccccc3)n2)CC1`, 2440 nM.
On to `CC(C)OC(=O)N1CCN(C(=O)[C@H](CCC(=O)O)NC(=O)c2cc(OC3CCNCC3)cc(-c3ccccc3)n2)CC1`, for which the Ki turned out to be 157 nM.
As for `CCCCCOC(=O)N1CCN(C(=O)[C@H](CCC(=O)O)NC(=O)c2cc(OCCCC)cc(-c3ccccc3)n2)CC1`, the inhibition constant Ki is 49 nM.
Turning to `CC(C)OC(=O)N1CCN(C(=O)[C@H](CCC(=O)O)NC(=O)c2cc(OCCO)cc(-c3ccccc3)n2)CC1`, the Ki worked out at 145 nM.
Next, `C=CCOC(=O)N1CCN(C(=O)[C@H](CCC(=O)O)NC(=O)c2cc(OCCCC)cc(-c3ccccc3)n2)CC1`: 99 nM; `NCC1CCN(c2cc(C(=O)N[C@@H](CCC(=O)O)C(=O)N3CCN(C(=O)OCCC4CCCC4)CC3)nc(-c3ccccc3)c2)CC1`: 69 nM; `CCOC(=O)N1CCN(C(=O)[C@H](CCC(=O)O)NC(=O)c2cc(OCC3CCNCC3)cc(-c3ccccc3)n2)CC1`: 76 nM.
In the case of `CCOC(=O)N1CCN(C(=O)[C@H](CCC(=O)O)NC(=O)c2cc(NCC3CCNCC3)cc(-c3ccccc3)n2)CC1`, the Ki came out at 190 nM.
Take `CCOC(=O)N1CCN(C(=O)[C@H](CCC(=O)O)NC(=O)c2cc(OCCCO)cc(-c3ccccc3)n2)CC1`: the Ki stood at 68 nM.
Regarding `CCOC(=O)N1CCN(C(=O)[C@H](CCC(=O)O)NC(=O)c2cc(N3CCC(N4CCCC4)CC3)cc(-c3ccccc3)n2)CC1`, the Ki was 34 nM.
Consider `C=CCOC(=O)N1CCN(C(=O)[C@H](CCC(=O)O)NC(=O)c2cc(OC3CCNCC3)cc(-c3ccccc3)n2)CC1`, for which the Ki turned out to be 93 nM.
For `CCOC(=O)N1CCN(C(=O)[C@H](CCC(=O)O)NC(=O)c2cc(NC3CCOCC3)cc(-c3ccccc3)n2)CC1` the value was 455 nM; for `CCCOC(=O)N1CCN(C(=O)[C@H](CCC(=O)O)NC(=O)c2cccc(-c3ccccc3)n2)CC1`, 27 nM.
In the case of `COCCOc1cc(C(=O)N[C@@H](CCC(=O)O)C(=O)N2CCN(C(=O)OC(C)C)CC2)nc(-c2ccccc2)c1`, the Ki is 189 nM.
With `CCOC(=O)N1CCN(C(=O)[C@H](CCC(=O)O)NC(=O)c2cc(OCCN)cc(-c3ccccc3)n2)CC1`, the Ki is 328 nM.
`CCCCCOC(=O)N1CCN(C(=O)C(CCC(=O)O)NC(=O)c2cc(N3CCC(COC)CC3)cc(-c3ccccc3)n2)CC1` (single isomer, unassigned): the Ki was found to be 510 nM.
For `CCOC(=O)N1CCN(C(=O)[C@H](CCC(=O)O)NC(=O)c2cc(N3CCC(CN)CC3)cc(-c3ccccc3)n2)CC1` the value was 14 nM.
Turning to `CCCCCCCOC(=O)N1CCN(C(=O)[C@H](CCC(=O)O)NC(=O)c2cccc(-c3ccccc3)n2)CC1`, the Ki came out at 7 nM.
For the compound `CCOC(=O)N1CCN(C(=O)[C@H](CCC(=O)O)NC(=O)c2cc(OC)cc(-c3ccccc3)n2)CC1`, the Ki was 96 nM.
On to `CCCCOc1cc(C(=O)N[C@@H](CCC(=O)O)C(=O)N2CCN(C(=O)OC(C)C)CC2)nc(-c2ccccc2)c1`, for which the Ki turned out to be 146 nM.
Regarding `Cc1cccc(N2CCN(C(=O)[C@H](CCC(=O)O)NC(=O)c3cccc(-c4ccccc4)n3)CC2)c1`, the Ki was > 5700 nM.
Take `O=C(O)CC[C@H](NC(=O)c1cc(N2CCC(O)CC2)cc(-c2ccccc2)n1)C(=O)N1CCN(C(=O)OCCC2CCCC2)CC1`: the Ki stood at 40 nM.
Regarding `CCOC(=O)N1CCN(C(=O)[C@H](CCC(=O)O)NC(=O)c2cc(OC(CC)C(=O)N(CC)CC)cc(-c3ccccc3)n2)CC1` (some centres undefined), the Ki was 81 nM.
Consider `CCCCCCOC(=O)N1CCN(C(=O)[C@H](CCC(=O)O)NC(=O)c2cc(N3CCC(O)CC3)cc(-c3ccccc3)n2)CC1`, for which the Ki was 24 nM.
For the compound `CCOC(=O)N1CCN(C(=O)[C@H](CCC(=O)O)NC(=O)c2cc(OC3CCNCC3)cc(-c3ccccc3)n2)CC1`, the Ki was 68 nM.
On to `CCOC(=O)N1CCN(C(=O)[C@H](CCC(=O)O)NC(=O)c2cc(N3CCC(N)CC3)cc(-c3ccccc3)n2)CC1`, for which the Ki is 27 nM.
Turning to `CCCCCOC(=O)N1CCN(C(=O)[C@H](CCC(=O)O)NC(=O)c2cc(OCCO)cc(-c3ccccc3)n2)CC1`, the Ki is 32 nM.
For `CCCCCCOC(=O)N1CCN(C(=O)[C@H](CCC(=O)O)NC(=O)c2cc(N3CCC(CN)CC3)cc(-c3ccccc3)n2)CC1` the value was 18 nM.
In the case of `CCOC(=O)N1CCN(C(=O)[C@H](CCC(=O)O)NC(=O)c2cc(N3CCC(COC)CC3)cc(-c3ccccc3)n2)CC1`, the Ki stood at 18 nM.
Take `CCCCOC(=O)N1CCN(C(=O)[C@H](CCC(=O)O)NC(=O)c2cc(OCCCC)cc(-c3ccccc3)n2)CC1`: the Ki was found to be 36 nM.
For `C=CCOC(=O)N1CCN(C(=O)[C@H](CCC(=O)O)NC(=O)c2cc(OCCO)cc(-c3ccccc3)n2)CC1` the value was 203 nM; for `CN(CCS(C)(=O)=O)c1cc(C(=O)N[C@@H](CCC(=O)O)C(=O)N2CCN(C(=O)OCCC3CCCC3)CC2)nc(-c2ccccc2)c1`, 80 nM; for `CCCCOC(=O)N1CCN(C(=O)[C@H](CCC(=O)O)NC(=O)c2cc(OCCO)cc(-c3ccccc3)n2)CC1`, 21 nM.
As for `CCOC(=O)N1CCN(C(=O)[C@H](CCC(=O)O)NC(=O)c2cc(NCCO)cc(-c3ccccc3)n2)CC1`, the Ki amounted to 114 nM.
As for `CCOC(=O)N1CCN(C(=O)[C@H](CCC(=O)O)NC(=O)c2ccccn2)CC1`, the Ki is > 5400 nM.
For the compound `CCOC(=O)N1CCN(C(=O)[C@H](CCC(=O)O)NC(=O)c2cc(OCCOC)cc(-c3ccccc3)n2)CC1`, the Ki was found to be 92 nM.
